# Test results taken from ChEMBL document CHEMBL4145521, “Regioselective synthesis of 3,4-diaryl-5-unsubstituted isoxazoles, analogues of natural cytostatic combretastatin A4” (Eur J Med Chem, 2018).
# Key:
# Type in all cases: functional
# RXF 393 [1] = assay: Cytotoxicity against human RXF393 cells incubated for 48 hrs by sulforhodamine B assay; details: RXF 393, 48 h
# SF-539 = assay: Cytotoxicity against human SF539 cells assessed as cell growth at 0.1 uM incubated for 48 hrs by sulforhodamine B assay relative to control; details: SF-539, 48 h, read-out: Activity
# KM12 [2] = assay: Cytotoxicity against human KM12 cells assessed as cell growth at 10 uM incubated for 48 hrs by sulforhodamine B assay relative to control; details: KM12, 48 h, read-out: Activity
# HCC 2998 [3] = assay: Cytotoxicity against human HCC2998 cells assessed as cell growth at 1 uM incubated for 48 hrs by sulforhodamine B assay relative to control; details: HCC 2998, 48 h, read-out: Activity
# 786-0 = assay: Cytotoxicity against human 786-0 cells assessed as cell growth at 0.01 uM incubated for 48 hrs by sulforhodamine B assay relative to control; details: 786-0, 48 h, read-out: Activity
# OVCAR-8 = assay: Cytotoxicity against human OVCAR8 cells assessed as cell growth at 0.1 uM incubated for 48 hrs by sulforhodamine B assay relative to control; details: OVCAR-8, 48 h, read-out: Activity
# ACHN = assay: Cytotoxicity against human ACHN cells assessed as cell growth at 100 uM incubated for 48 hrs by sulforhodamine B assay relative to control; details: read-out: Activity
# DU-145 = assay: Cytotoxicity against human DU145 cells assessed as cell growth at 1 uM incubated for 48 hrs by sulforhodamine B assay relative to control; details: DU-145, 48 h, read-out: Activity
# MDA-MB-435 [4] = assay: Cytotoxicity against human MDA-MB-435 cells incubated for 48 hrs by sulforhodamine B assay; details: MDA-MB-435, 48 h
# PC-3 = assay: Cytotoxicity against human PC3 cells assessed as cell growth at 100 uM incubated for 48 hrs by sulforhodamine B assay relative to control; details: PC-3, 48 h, read-out: Activity
# T47D = assay: Cytotoxicity against human T47D cells assessed as cell growth at 0.01 uM incubated for 48 hrs by sulforhodamine B assay relative to control; details: read-out: Activity
# HCC 2998 [5] = assay: Cytotoxicity against human HCC2998 cells assessed as cell growth at 0.1 uM incubated for 48 hrs by sulforhodamine B assay relative to control; details: HCC 2998, 48 h, read-out: Activity
# KM12 [6] = assay: Cytotoxicity against human KM12 cells incubated for 48 hrs by sulforhodamine B assay; details: KM12, 48 h
# SK-OV-3 = assay: Cytotoxicity against human SKOV3 cells assessed as cell growth at 0.1 uM incubated for 48 hrs by sulforhodamine B assay relative to control; details: SK-OV-3, 48 h, read-out: Activity
# TK-10 = assay: Cytotoxicity against human TK10 cells assessed as cell growth at 0.01 uM incubated for 48 hrs by sulforhodamine B assay relative to control; details: TK-10, 48 h, read-out: Activity
# HCT-116 = assay: Cytotoxicity against human HCT116 cells assessed as cell growth at 10 uM incubated for 48 hrs by sulforhodamine B assay relative to control; details: HCT-116, 48 h, read-out: Activity
# NCI-H522 [7] = assay: Cytotoxicity against human NCI-H522 cells assessed as cell growth at 0.01 uM incubated for 48 hrs by sulforhodamine B assay relative to control; details: NCI-H522, 48 h, read-out: Activity
# LOX IMVI = assay: Cytotoxicity against human LOXIMVI cells assessed as cell growth at 1 uM incubated for 48 hrs by sulforhodamine B assay relative to control; details: read-out: Activity
# OVCAR-3 [8] = assay: Cytotoxicity against human OVCAR3 cells incubated for 48 hrs by sulforhodamine B assay; details: OVCAR-3, 48 h
# MDA-MB-435 [9] = assay: Cytotoxicity against human MDA-MB-435 cells assessed as cell growth at 0.1 uM incubated for 48 hrs by sulforhodamine B assay relative to control; details: MDA-MB-435, 48 h, read-out: Activity
# HL-60(TB) = assay: Cytotoxicity against human HL-60(TB) cells incubated for 48 hrs by sulforhodamine B assay; details: HL-60, 48 h
# RXF 393 [10] = assay: Cytotoxicity against human RXF393 cells assessed as cell growth at 1 uM incubated for 48 hrs by sulforhodamine B assay relative to control; details: RXF 393, 48 h, read-out: Activity
# MOLT-4 = assay: Cytotoxicity against human MOLT4 cells incubated for 48 hrs by sulforhodamine B assay; details: MOLT-4, 48 h
# NCI-H522 [11] = assay: Cytotoxicity against human NCI-H522 cells incubated for 48 hrs by sulforhodamine B assay; details: NCI-H522, 48 h
# NCI-H522 [12] = assay: Cytotoxicity against human NCI-H522 cells assessed as cell growth at 1 uM incubated for 48 hrs by sulforhodamine B assay relative to control; details: NCI-H522, 48 h, read-out: Activity
# SF-295 = assay: Cytotoxicity against human SF295 cells assessed as cell growth at 0.1 uM incubated for 48 hrs by sulforhodamine B assay relative to control; details: SF-295, 48 h, read-out: Activity
# OVCAR-3 [13] = assay: Cytotoxicity against human OVCAR3 cells assessed as cell growth at 10 uM incubated for 48 hrs by sulforhodamine B assay relative to control; details: OVCAR-3, 48 h, read-out: Activity
# NCI-H460 = assay: Cytotoxicity against human NCI-H460 cells assessed as cell growth at 0.01 uM incubated for 48 hrs by sulforhodamine B assay relative to control; details: NCI-H460, 48 h, read-out: Activity
# Malme-3M = assay: Cytotoxicity against human MALME-3M cells assessed as cell growth at 0.01 uM incubated for 48 hrs by sulforhodamine B assay relative to control; details: read-out: Activity
# SN12C = assay: Cytotoxicity against human SN12C cells assessed as cell growth at 10 uM incubated for 48 hrs by sulforhodamine B assay relative to control; details: read-out: Activity
# [14] = read-out: LC50 (the source's name)
# [15] = read-out: pLC50 (the source's name) (converted)
structure (smiles),measurement,setting,value
COc1ccc(-c2nocc2-c2cc(OC)c(OC)c(OC)c2)cc1,GI50,RXF 393 [1]; read-out: GI50,243 nM
same,CC50,RXF 393 [1]; [14],> 100000 nM
same,GI50,RXF 393 [1]; read-out: pGI50 (converted),245 nM
same,CC50,RXF 393 [1]; [15],> 100000 nM
same,growth at 0.1 µM,SF-539,65%
same,growth at 10 µM,KM12 [2],6%
same,growth at 1 µM,HCC 2998 [3],40%
same,growth at 0.01 µM,786-0,85%
same,growth at 0.1 µM,OVCAR-8,74%
same,growth at 100 µM,ACHN,-13%
same,growth at 1 µM,DU-145,17%
same,GI50,MDA-MB-435 [4]; read-out: GI50,23.9 nM
same,CC50,MDA-MB-435 [4]; [14],> 100000 nM
same,TGI,MDA-MB-435 [4]; read-out: TGI,130 nM
same,GI50,MDA-MB-435 [4]; read-out: pGI50 (converted),24 nM
same,CC50,MDA-MB-435 [4]; [15],> 100000 nM
same,TGI,MDA-MB-435 [4]; read-out: pTGI (converted),129 nM
same,growth at 100 µM,PC-3,-13%
same,growth at 0.01 µM,T47D,81%
same,growth at 0.1 µM,HCC 2998 [5],62%
same,GI50,KM12 [6]; read-out: GI50,43.3 nM
same,CC50,KM12 [6]; [14],> 100000 nM
same,TGI,KM12 [6]; read-out: TGI,13100 nM
same,GI50,KM12 [6]; read-out: pGI50 (converted),43.6 nM
same,CC50,KM12 [6]; [15],> 100000 nM
same,TGI,KM12 [6]; read-out: pTGI (converted),13200 nM
same,growth at 0.1 µM,SK-OV-3,60%
same,growth at 0.01 µM,TK-10,90%
same,growth at 10 µM,HCT-116,6%
same,growth at 0.01 µM,NCI-H522 [7],84%
same,growth at 1 µM,LOX IMVI,43%
same,GI50,OVCAR-3 [8]; read-out: GI50,38.6 nM
same,LC50 (50% lethal concentration),OVCAR-3 [8]; read-out: LC50,> 100000 nM
same,TGI,OVCAR-3 [8]; read-out: TGI,1320 nM
same,GI50,OVCAR-3 [8]; read-out: pGI50 (converted),38.9 nM
same,LC50 (50% lethal concentration),OVCAR-3 [8]; read-out: pLC50 (converted),> 100000 nM
same,TGI,OVCAR-3 [8]; read-out: pTGI (converted),1320 nM
same,growth at 0.1 µM,MDA-MB-435 [9],3%
same,GI50,HL-60(TB); read-out: GI50,48.8 nM
same,CC50,HL-60(TB); [14],> 100000 nM
same,TGI,HL-60(TB); read-out: TGI,391 nM
same,GI50,HL-60(TB); read-out: pGI50 (converted),49 nM
same,CC50,HL-60(TB); [15],> 100000 nM
same,TGI,HL-60(TB); read-out: pTGI (converted),389 nM
same,growth at 1 µM,RXF 393 [10],-7%
same,GI50,MOLT-4; read-out: GI50,708 nM
same,CC50,MOLT-4; [14],> 100000 nM
same,TGI,MOLT-4; read-out: TGI,> 100000 nM
same,GI50,MOLT-4; read-out: pGI50 (converted),708 nM
same,CC50,MOLT-4; [15],> 100000 nM
same,TGI,MOLT-4; read-out: pTGI,> 100000 nM
same,GI50,NCI-H522 [11]; read-out: GI50,22.5 nM
same,LC50,NCI-H522 [11]; read-out: LC50,> 100000 nM
same,TGI,NCI-H522 [11]; read-out: TGI,75.2 nM
same,GI50,NCI-H522 [11]; read-out: pGI50 (converted),22.4 nM
same,LC50,NCI-H522 [11]; read-out: pLC50 (converted),> 100000 nM
same,TGI,NCI-H522 [11]; read-out: pTGI (converted),75.9 nM
same,growth at 1 µM,NCI-H522 [12],-39%
same,growth at 0.1 µM,SF-295,36%
same,growth at 10 µM,OVCAR-3 [13],-9%
same,growth at 0.01 µM,NCI-H460,105%
same,growth at 0.01 µM,Malme-3M,86%
same,growth at 10 µM,SN12C,34%
